Test results: the NIST ThermoML archive (doi:10.1016/j.fluid.2005.07.017)

Details: Liquid, Vibrating tube method

c1ccsc1 [thiophene]
Details | mass density [kg/m3]
293.15 K, 101 kPa | 1063.59
303.15 K, 101 kPa | 1051.55
313.09 K, 1029 kPa | 1040.96
313.09 K, 1969 kPa | 1041.84
313.09 K, 2970 kPa | 1042.78
313.09 K, 3987 kPa | 1043.71
313.09 K, 5055 kPa | 1044.72
313.09 K, 5952 kPa | 1045.51
313.09 K, 6937 kPa | 1046.43
313.09 K, 8032 kPa | 1047.39
313.09 K, 9218 kPa | 1048.44
313.09 K, 10045 kPa | 1049.18
313.09 K, 11012 kPa | 1050.03
313.09 K, 12014 kPa | 1050.9
313.09 K, 12995 kPa | 1051.74
313.09 K, 13961 kPa | 1052.59
313.09 K, 14970 kPa | 1053.43
313.09 K, 15953 kPa | 1054.26
313.09 K, 17004 kPa | 1055.16
313.09 K, 18003 kPa | 1055.95
313.09 K, 18904 kPa | 1056.76
313.15 K, 101 kPa | 1039.32
323.01 K, 1047 kPa | 1028.97
323.01 K, 2059 kPa | 1029.98
323.01 K, 3070 kPa | 1031.02
323.01 K, 4047 kPa | 1031.99
323.01 K, 5002 kPa | 1032.9
323.01 K, 6005 kPa | 1033.9
323.01 K, 7068 kPa | 1034.92
323.01 K, 8021 kPa | 1035.81
323.01 K, 9013 kPa | 1036.76
323.01 K, 10005 kPa | 1037.67
323.01 K, 10991 kPa | 1038.62
323.01 K, 12034 kPa | 1039.58
323.01 K, 12977 kPa | 1040.44
323.01 K, 13999 kPa | 1041.38
323.01 K, 14991 kPa | 1042.26
323.01 K, 15995 kPa | 1043.17
323.01 K, 16998 kPa | 1044.03
323.01 K, 17983 kPa | 1044.93
323.01 K, 18951 kPa | 1045.78
323.15 K, 101 kPa | 1026.98
332.85 K, 1015 kPa | 1016.93
332.85 K, 2035 kPa | 1018
332.85 K, 3004 kPa | 1019.06
332.85 K, 3964 kPa | 1020.05
332.85 K, 4991 kPa | 1021.14
332.85 K, 6001 kPa | 1022.17
332.85 K, 7014 kPa | 1023.21
332.85 K, 7998 kPa | 1024.2
332.85 K, 9009 kPa | 1025.23
332.85 K, 9995 kPa | 1026.19
332.85 K, 10989 kPa | 1027.18
332.85 K, 12006 kPa | 1028.17
332.85 K, 13009 kPa | 1029.18
332.85 K, 13971 kPa | 1030.09
332.85 K, 15006 kPa | 1031.04
332.85 K, 15990 kPa | 1032.01
332.85 K, 17050 kPa | 1033.03
332.85 K, 17976 kPa | 1033.88
332.85 K, 19018 kPa | 1034.92
333.15 K, 101 kPa | 1014.58
342.77 K, 1039 kPa | 1004.75
342.77 K, 2072 kPa | 1005.93
342.77 K, 3033 kPa | 1007.02
342.77 K, 4023 kPa | 1008.17
342.77 K, 5027 kPa | 1009.26
342.77 K, 6033 kPa | 1010.36
342.77 K, 7008 kPa | 1011.44
342.77 K, 7998 kPa | 1012.5
342.77 K, 9005 kPa | 1013.59
342.77 K, 10000 kPa | 1014.65
342.77 K, 10963 kPa | 1015.65
342.77 K, 12009 kPa | 1016.72
342.77 K, 13023 kPa | 1017.82
342.77 K, 13928 kPa | 1018.74
342.77 K, 15009 kPa | 1019.83
342.77 K, 15998 kPa | 1020.79
342.77 K, 17025 kPa | 1021.8
342.77 K, 17995 kPa | 1022.8
342.77 K, 19013 kPa | 1023.79
342.77 K, 20001 kPa | 1024.73
343.15 K, 101 kPa | 1002.15
352.67 K, 1064 kPa | 992.39
352.67 K, 2003 kPa | 993.54
352.67 K, 3024 kPa | 994.79
352.67 K, 4003 kPa | 995.98
352.67 K, 5048 kPa | 997.22
352.67 K, 6013 kPa | 998.36
352.67 K, 7013 kPa | 999.51
352.67 K, 8050 kPa | 1000.73
352.67 K, 9018 kPa | 1001.82
352.67 K, 10003 kPa | 1002.93
352.67 K, 11003 kPa | 1004.07
352.67 K, 12004 kPa | 1005.16
352.67 K, 12998 kPa | 1006.25
352.67 K, 14005 kPa | 1007.34
352.67 K, 15038 kPa | 1008.46
352.67 K, 16006 kPa | 1009.49
352.67 K, 17027 kPa | 1010.58
352.67 K, 18001 kPa | 1011.6
352.67 K, 19031 kPa | 1012.65
352.67 K, 20017 kPa | 1013.74
353.15 K, 101 kPa | 989.76
362.51 K, 1007 kPa | 979.8
362.51 K, 2022 kPa | 981.13
362.51 K, 3029 kPa | 982.49
362.51 K, 4004 kPa | 983.74
362.51 K, 5006 kPa | 985.01
362.51 K, 6003 kPa | 986.27
362.51 K, 6999 kPa | 987.5
362.51 K, 7993 kPa | 988.73
362.51 K, 9007 kPa | 989.99
362.51 K, 9993 kPa | 991.16
362.51 K, 10997 kPa | 992.36
362.51 K, 11993 kPa | 993.56
362.51 K, 12838 kPa | 994.53
362.51 K, 14038 kPa | 995.94
362.51 K, 15044 kPa | 997.1
362.51 K, 16029 kPa | 998.18
362.51 K, 17006 kPa | 999.27
362.51 K, 18016 kPa | 1000.4
362.51 K, 18987 kPa | 1001.47
